The values that follow are results of earlier work, collected in US20240166971A1, “CONTACT LENS TREATING SOLUTION” (Bausch + Lomb Ireland Limited, priority 2022, published 2024).

This series concerns Gram-positive bacteria. The following applies: known property.

On to `CCCCC(CC)COCC(O)CO` (stereo not shown) [EHOPD, 3-[(2-ethylhexyl)oxy]-1,2-propanediol], for which the antimicrobial activity result is on record as “exhibit antimicrobial activity”.
